Source: US12516052B2, “Methyltransferase 5 (PRMT5) inhibitors and methods of treatment” (THE TRUSTEES OF INDIANA UNIVERSITY, priority 2016, dated 2026)
“Also recorded” adds a separate entry of the source.

Tests used:
[1] = tested on: PRMT5-mediated p65 methylation; assay: Co-immunoprecipitation-Western blot of p65 dimethylation in 293-WT-p65-Flag cells; type: cell-based; details: 20 μM for 24 hours, compared to untreated control
From the text: FIGS. 2A-D depict the experimental results of studies to determine the PRMT5 inhibitory activity of a compound of formula (II), a compound of formula (III), and a compound of formula (IV). […] Flag beads were used to pull down WT-p65-Flag and samples were then probed with anti-symmetric dimethyl arginine motif Ab (sdme-RG Ab) to detect dimethylation levels of the p65 subunit.
Amongst the hits, the leading compounds were a compound of formula (II), specifically compound (IIa), a compound of formula (III), specifically compound (IIIa), and a compound of formula (IV), specifically compound (Iva). […] To determine whether compound (IIa) reduced p65 methylation of NF-κB, Flag-p65 expressing cells were treated with 20 μM compound (IIa) for 24 hours, Flag-p65 was then pulled down with anti-Flag-M2 beads and analyzed with Western blot by probing with anti-dimethylated arginine (FIG. 2B).

[2] = tested on: other protein arginine methyltransferase family members; assay: HotSpot radioisotope-based methyltransferase platform (Reaction Biology Corp); type: biochemical; details: did not inhibit or at least this fold higher IC50
PANC1 cells [3] = assay: Anchorage-independent (soft agar) growth assay in PANC1 cells; type: cell-based; details: increasing concentrations
Description: (§1) The ability to form colonies suspended in soft agar is a characteristic of cancer cells. By using the stable cell lines established above, an anchorage-independent assay in soft agar was conducted. 2.5% and 1.25% agar were used to prepare the bottom and top layers of the soft agar, respectively. The bottom agar was added to each well of a 6-well plate. 2×10^5 cells for each cell line were then added and mixed into top agar solution and layered on top of the bottom layer. The plates were incubated for 10-20 days at 37° C. and 5% CO2. Images were captured using a Canon EOS Rebel T3i Digital SLR camera (Canon, Woodridge, IL) and quantification of colony size and number was performed using ImageJ. […] A soft agar experiment was also performed to determine the effect of compound (IIa) on colony growth.

HT29 cells = assay: Anchorage-independent (soft agar) growth assay in HT29 cells; type: cell-based; details: increasing concentrations
Description: as §1

PANC1 cells [4] = assay: PANC1 subcutaneous xenograft tumor efficacy study in NSG mice; type: in vivo; details: 20 mg/kg intraperitoneally 3×/week, vs vehicle control, n=4
Description: NSG (NOD scid gamma) mice were obtained from the In Vivo Therapeutics Core at Indiana University School of Medicine. After acclimation for 7 days, NSG mice (6-8 weeks old) were xenografted with mycoplasma-free PANC1 or HT29 cells subcutaneously (1×10^7 PANC1 or 3×10^6 HT29 cells used per mouse in 0.2 ml of a 1:1 mix of phosphate-buffered saline and MATRIGEL™) (BD Biosciences, San Jose, CA). Mice were randomized when tumor volumes reached about 100 mm^3. Mice were treated with either vehicle control or 20 mg/kg of compound (Ia) (drug stock dissolved in 1:1 CREMOPHOR™:ethanol solution) intraperitoneally 3 times per week. Tumor volumes and body weights were measured twice a week. The study was performed in accordance with the guidelines and standards of the Institutional Animal Care and Use Committee (IACUC). […] NSG (NOD scid gamma) mice were obtained from the In Vivo Therapeutics Core at Indiana University School of Medicine. After acclimation for 7 days, NSG mice (6-8 weeks old) were xenografted with mycoplasma-free PANC1 or HT29 cells subcutaneously (1×10^7 PANC1 or 3×10^6 HT29 cells used per mouse in 0.2 ml of a 1:1 mix of phosphate-buffered saline and MATRIGEL™) (BD Biosciences, San Jose, CA). Mice were randomized when tumor volumes reached about 100 mm^3. […] Tumor volumes and body weights were measured twice a week. […]

[5] = Body weight of xenografted NSG mice during treatment; type: in vivo; details: 20 mg/kg intraperitoneally 3×/week, over the course of treatment
Description: NSG (NOD scid gamma) mice were obtained from the In Vivo Therapeutics Core at Indiana University School of Medicine. After acclimation for 7 days, NSG mice (6-8 weeks old) were xenografted with mycoplasma-free PANC1 or HT29 cells subcutaneously (1×10^7 PANC1 or 3×10^6 HT29 cells used per mouse in 0.2 ml of a 1:1 mix of phosphate-buffered saline and MATRIGEL™) (BD Biosciences, San Jose, CA). Mice were randomized when tumor volumes reached about 100 mm^3. Mice were treated with either vehicle control or 20 mg/kg of compound (Ia) (drug stock dissolved in 1:1 CREMOPHOR™:ethanol solution) intraperitoneally 3 times per week. Tumor volumes and body weights were measured twice a week. The study was performed in accordance with the guidelines and standards of the Institutional Animal Care and Use Committee (IACUC). […] NSG (NOD scid gamma) mice were obtained from the In Vivo Therapeutics Core at Indiana University School of Medicine. After acclimation for 7 days, NSG mice (6-8 weeks old) were xenografted with mycoplasma-free PANC1 or HT29 cells subcutaneously (1×10^7 PANC1 or 3×10^6 HT29 cells used per mouse in 0.2 ml of a 1:1 mix of phosphate-buffered saline and MATRIGEL™) (BD Biosciences, San Jose, CA). Mice were randomized when tumor volumes reached about 100 mm^3. Mice were treated with either vehicle control or 20 mg/kg of compound (IIa) (drug stock dissolved in 1:1 CREMOPHOR™:ethanol solution) intraperitoneally 3 times per week. Tumor volumes and body weights were measured twice a week. The study was performed in accordance with the guidelines and standards of the Institutional Animal Care and Use Committee (IACUC).

NF-κB [6] = assay: NF-κB luciferase assay in PANC1 cells; type: cell-based; details: increasing concentrations
From the text: (§2) Previously, it was discovered that PRMT5 activates NF-κB through methylation of its p65 subunit in HEK293 cells (Wei et al., Proc Natl Acad Sci USA, 2013; 110: 13516-13521; Wei et al., Cell Cycle, 2013; 13: 32-41). As shown in FIGS. 11A and 11B, overexpression of PRMT5 enhances NF-κB activity, while PRMT5 knockdown causes the opposite effect in both PANC1 (FIG. 11A) and HT-29 (FIG. 11B) cells. To determine if compound (IIa) decreases NF-κB activity, cells transfected with a NF-κB luciferase construct were treated with increasing concentrations of compound (IIa) or the control compound EPZ015666.

NF-κB [7] = assay: NF-κB luciferase assay in HT29 cells; type: cell-based; details: increasing concentrations
From the text: as §2

[8] = tested on: NF-κB target genes (TNFα and IL8); assay: qPCR of NF-κB target genes in PANC1 cells; type: cell-based; details: treated vs untreated
Description: (§3) Furthermore, experiments were performed to determine if PRMT5 inhibition by compound (IIa) could decrease the expression of NF-κB target genes (e.g., pro-inflammatory cytokines TNFα and IL-8). Briefly, HT29 and PANC1 cells were treated with or without compound (IIa), and target gene expression was analyzed by quantitative PCR.

[9] = tested on: NF-κB target genes (TNFα and IL8); assay: qPCR of NF-κB target genes in HT29 cells; type: cell-based; details: treated vs untreated
Description: as §3

[10] = tested on: methamphetamine-treated rats; assay: Striatal neurotransmitter levels (HPLC) in methamphetamine-treated rats; type: in vivo; details: methamphetamine 7.5 mg/kg ×4, then 4 injections of 1 mg/kg at 12 hour intervals, vs vehicle
Description: Rats were given methamphetamine treatment 7.5 mg/kg, 4 injections spaced out at 2 hours each. Then, 4 injections of 1 mg/kg of compound (IIa) or vehicle control were given at 12 hours, 24 hours, 36 hours, and 48 hours after the last methamphetamine injection. Rats were sacrificed 24 hours after the last injection and neurotransmitter levels were quantified in the striatum using high performance liquid chromatography (HPLC).

Structure (SMILES): Cc1ccc(Nc2nc(NCCN(C)C)nc3c2cnn3-c2ccccc2)cc1C [compound (IIa)]
- methylation of PRMT5 substrate p65 [1]: significantly inhibited PRMT5-mediated p65 methylation; also recorded: inhibited the methylation of PRMT5 substrate, p65
- fold higher IC50 against other protein arginine methyltransferase family members [2]: ≥ 10 fold
- anchorage-independent growth / colony formation, PANC1 (PDAC) (PANC1 cells [3]): strongly inhibited colony formation; also recorded: significant decrease
- anchorage-independent growth / colony formation, HT29 (CRC) (HT29 cells): strongly inhibited colony formation; also recorded: significant decrease
- tumor growth (tumor volume), PANC1 xenograft (PANC1 cells [4]): significant tumor inhibition effect; also recorded: inhibition of tumor growth
- body weight, HT29 model [5]: did not visibly affect the body weight; also recorded: no significant changes in body weight
- body weight, PANC1 model [5]: did not visibly affect the body weight; also recorded: no significant changes in body weight
- NF-κB activation (luciferase), PANC1 (NF-κB [6]): corresponding decrease in NF-κB activation
- NF-κB activation (luciferase), HT29 (NF-κB [7]): corresponding decrease in NF-κB activation
- IL8 expression (qPCR), PANC1 [8]: significant decrease; also recorded: dramatically decreased
- TNFα expression (qPCR), PANC1 [8]: significant decrease; also recorded: dramatically decreased
- IL8 expression (qPCR), HT29 [9]: significant decrease; also recorded: dramatically decreased
- TNFα expression (qPCR), HT29 [9]: significant decrease; also recorded: dramatically decreased
- dopamine levels in the striatum [10]: increase
- serotonin levels in the striatum [10]: increase
